Reference: the supplement of paper PMC10627819

Key:
S. aureus DSM 20231 [1] = assay: fitness (endpoint OD595 vs no drug) (fraction); higher = more growth; conditions: main component drawn
Summary of the method: (§1)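 Growth medium was TSB, LB Lennox or CY, and plates were kept at 37 °C. Inoculation was at OD595 0.01 in 384-well plates, at 30 µl per well or 55 µl for S. pneumoniae. OD595 was monitored every 30 min for 14 h and background-subtracted using the first reading. Fitness is the optical density on entering stationary phase divided by the robust mean of no-drug controls, with values capped at 1.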

S. aureus Newman [2] = assay: as above
Summary of the method: as §1

B. subtilis 168 [3] = assay: Bliss interaction score (quartile over a dose matrix) (fitness difference); higher = more antagonism (negative = synergy)
Summary of the method: (§2)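 Fitness was OD595 at entry into stationary phase divided by the plate's robust no-drug mean and capped at 1; single-drug fitness was inferred from combination data. The Bliss score is observed minus expected (product) fitness, summarised by quartiles over technical, biological and donor/recipient replicates.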

S. aureus DSM 20231 [4] = assay: as above
Summary of the method: as §2

S. aureus Newman [5] = assay: as above
Summary of the method: as §2

S. pneumoniae D39V [6] = assay: as above
Summary of the method: as §2

B. subtilis 168 [7] = assay: fitness (endpoint OD595 vs no drug) (fraction); higher = more growth
Summary of the method: as §1

S. pneumoniae D39V [8] = assay: as above
Summary of the method: as §1
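For Bliss interaction score (quartile over a dose matrix) in this document: first quartile when negative (synergy) and third quartile when positive (antagonism).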

CO/N=C(\C(=O)N[C@@H]1C(=O)N2C(C(=O)[O-])=C(C[N+]3(C)CCCC3)CS[C@H]12)c1csc(N)n1 [Cefepime] + CCCCCCCCCC(=O)N[C@@H]1[C@H]([C@@H]([C@H](O[C@H]1OC2=C3C=C4C=C2OC5=C(C=C(C=C5)[C@H]([C@H]6C(=O)N[C@@H](C7=C(C(=CC(=C7)O)OC8[C@H]([C@H]([C@@H]([C@H](O8)CO)O)O)O)C9=C(C=CC(=C9)[C@H](C(=O)N6)NC(=O)[C@@H]4NC(=O)[C@@H]1C2=CC(=CC(=C2)OC2=C(C=CC(=C2)[C@H](C(=O)N[C@H](CC2=CC(=C(O3)C=C2)Cl)C(=O)N1)N)O)O)O)C(=O)O)O[C@H]1[C@@H]([C@H]([C@@H]([C@H](O1)CO)O)O)NC(=O)C)Cl)CO)O)O [Teicoplanin]
fitness, S. aureus DSM 20231 [1]
Conditions	first compound 0.125 µg/mL	first compound 0.25 µg/mL	first compound 0.5 µg/mL
partner 0.1562 µg/mL	0.9	0.88	0.864
partner 0.3125 µg/mL	0.959	0.929	0.919
partner 0.625 µg/mL	0.984	0.87	0.842

fitness, S. aureus Newman [2], main component drawn
Conditions	first compound 0.125 µg/mL	first compound 0.25 µg/mL	first compound 0.5 µg/mL
partner 0.1562 µg/mL	0.892	0.827	0.713
partner 0.3125 µg/mL	0.897	0.799	0.73
partner 0.625 µg/mL	0.891	0.766	0.646

fitness, S. aureus Newman [2], one replicate, main component drawn
Conditions	first compound 0.125 µg/mL	first compound 0.25 µg/mL	first compound 0.5 µg/mL
partner 0.62 µg/mL	0.712	0.61	0.625
partner 1.24 µg/mL	0.7	0.634	0.576
partner 2.48 µg/mL	0.459	0.173	0.203

main component drawn
Conditions	Bliss interaction score
B. subtilis 168 [3]	-0.172
S. aureus DSM 20231 [4]	-0.0986
S. aureus Newman [5]	-0.0867
S. pneumoniae D39V [6]	0.0453

CCCCCCCCCC(=O)N[C@@H](Cc1c[nH]c2ccccc12)C(=O)N[C@H](CC(N)=O)C(=O)N[C@@H](CC(=O)O)C(=O)N[C@@H]1C(=O)NCC(=O)N[C@@H](CCCN)C(=O)N[C@@H](CC(=O)O)C(=O)N[C@H](C)C(=O)N[C@@H](CC(=O)O)C(=O)NCC(=O)N[C@H](CO)C(=O)N[C@@H]([C@H](C)CC(=O)O)C(=O)N[C@@H](CC(=O)c2ccccc2N)C(=O)O[C@@H]1C [Daptomycin] + CCCCCCCCCC(=O)N[C@@H]1[C@H]([C@@H]([C@H](O[C@H]1OC2=C3C=C4C=C2OC5=C(C=C(C=C5)[C@H]([C@H]6C(=O)N[C@@H](C7=C(C(=CC(=C7)O)OC8[C@H]([C@H]([C@@H]([C@H](O8)CO)O)O)O)C9=C(C=CC(=C9)[C@H](C(=O)N6)NC(=O)[C@@H]4NC(=O)[C@@H]1C2=CC(=CC(=C2)OC2=C(C=CC(=C2)[C@H](C(=O)N[C@H](CC2=CC(=C(O3)C=C2)Cl)C(=O)N1)N)O)O)O)C(=O)O)O[C@H]1[C@@H]([C@H]([C@@H]([C@H](O1)CO)O)O)NC(=O)C)Cl)CO)O)O [Teicoplanin]
fitness, S. aureus DSM 20231 [1]
Conditions	first compound 0.125 µg/mL	first compound 0.25 µg/mL	first compound 0.5 µg/mL	first compound 1 µg/mL	first compound 2 µg/mL
partner 0.1562 µg/mL	0.976	0.977	≥ 1	0.949	≥ 1
partner 0.3125 µg/mL	≥ 1	≥ 1	≥ 1	≥ 1	0.991
partner 0.625 µg/mL	≥ 1	≥ 1	≥ 1	≥ 1	≥ 1

fitness, S. aureus Newman [2], main component drawn
Conditions	first compound 0.125 µg/mL	first compound 0.25 µg/mL	first compound 0.5 µg/mL
partner 0.1562 µg/mL	0.998	0.992	≥ 1
partner 0.3125 µg/mL	≥ 1	≥ 1	≥ 1
partner 0.625 µg/mL	≥ 1	≥ 1	≥ 1

fitness, S. aureus Newman [2], one replicate, main component drawn
Conditions	first compound 0.5 µg/mL	first compound 1 µg/mL	first compound 2 µg/mL
partner 0.62 µg/mL	0.791	0.785	0.924
partner 1.24 µg/mL	0.746	0.753	0.765
partner 2.48 µg/mL	0.461	0.471	0.501

main component drawn
Conditions	Bliss interaction score
B. subtilis 168 [3]	0.0936
S. aureus DSM 20231 [4]	0.0282
S. aureus Newman [5]	0.0337
S. pneumoniae D39V [6]	0.0818

CCN(CC)CCOC(=O)c1ccc(N)cc1 [Procaine] + CCCCCCCCCC(=O)N[C@@H]1[C@H]([C@@H]([C@H](O[C@H]1OC2=C3C=C4C=C2OC5=C(C=C(C=C5)[C@H]([C@H]6C(=O)N[C@@H](C7=C(C(=CC(=C7)O)OC8[C@H]([C@H]([C@@H]([C@H](O8)CO)O)O)O)C9=C(C=CC(=C9)[C@H](C(=O)N6)NC(=O)[C@@H]4NC(=O)[C@@H]1C2=CC(=CC(=C2)OC2=C(C=CC(=C2)[C@H](C(=O)N[C@H](CC2=CC(=C(O3)C=C2)Cl)C(=O)N1)N)O)O)O)C(=O)O)O[C@H]1[C@@H]([C@H]([C@@H]([C@H](O1)CO)O)O)NC(=O)C)Cl)CO)O)O [Teicoplanin]
fitness, S. aureus DSM 20231 [1]
Conditions	first compound 85.5 µg/mL	first compound 171 µg/mL	first compound 342 µg/mL
partner 0.1562 µg/mL	≥ 1	≥ 1	0.992
partner 0.3125 µg/mL	0.975	≥ 1	≥ 1
partner 0.625 µg/mL	≥ 1	≥ 1	≥ 1

fitness, S. aureus Newman [2], main component drawn
Conditions	first compound 85.5 µg/mL	first compound 171 µg/mL	first compound 342 µg/mL
partner 0.1562 µg/mL	0.996	≥ 1	0.997
partner 0.3125 µg/mL	0.975	0.981	0.963
partner 0.625 µg/mL	0.83	0.898	0.889

fitness, S. aureus Newman [2], one replicate, main component drawn
Conditions	first compound 85.5 µg/mL	first compound 171 µg/mL	first compound 342 µg/mL
partner 0.62 µg/mL	0.774	0.738	0.765
partner 1.24 µg/mL	0.785	0.705	0.726
partner 2.48 µg/mL	0.407	0.496	0.478

main component drawn
Conditions	Bliss interaction score
B. subtilis 168 [3]	-0.0776
S. aureus DSM 20231 [4]	0.044
S. aureus Newman [5]	0.0323
S. pneumoniae D39V [6]	-0.113

CCN(CC)CCOC(=O)c1ccc(N)cc1 [Procaine] + CN[C@@H]1[C@H](O[C@H]2[C@H](O[C@H]3[C@H](O)[C@@H](O)[C@H](N=C(N)N)[C@@H](O)[C@@H]3N=C(N)N)O[C@@H](C)[C@]2(O)C=O)O[C@@H](CO)[C@H](O)[C@H]1O [Streptomycin]
fitness
Conditions	first compound 85.5 µg/mL	first compound 171 µg/mL	first compound 342 µg/mL
B. subtilis 168 [7], partner 2 µg/mL	0.914	0.921	0.94
B. subtilis 168 [7], partner 8 µg/mL	0.0423	0.0261	0.0278
S. aureus Newman [2], partner 1 µg/mL	0.994	0.963	0.957
S. aureus Newman [2], partner 2 µg/mL	0.983	0.96	0.985
S. pneumoniae D39V [8], partner 2 µg/mL	0.985	0.988	0.933
S. pneumoniae D39V [8], partner 4 µg/mL	0.984	0.984	0.945
S. pneumoniae D39V [8], partner 8 µg/mL	0.952	0.92	0.9

S. pneumoniae D39V [8], partner 16 µg/mL, one replicate
Conditions	fitness
first compound 85.5 µg/mL	0.815
first compound 171 µg/mL	0.759
first compound 342 µg/mL	0.75

Conditions	Bliss interaction score
B. subtilis 168 [3]	-0.117
S. aureus DSM 20231 [4]	0.0982
S. aureus Newman [5]	0.0657
S. pneumoniae D39V [6]	0.0529
